Values of other authors as cited in patent US10281467B2, “Screening assays to identify compounds which modulate T1R associated taste modalities which eliminate false positives” (SENOMYX, INC., priority 2013, dated 2019).

Tested on: sweet taste
Conditions: more potent/sweet than sucrose

C=C(C)[C@@H]1CC=C(/C=N/O)CC1 [Perillartine]
potency/sweetness relative to sucrose: approximately 370 times
